Reference: publication PMC10221074, “Functional Profiling of the A-Family of Venom Peptides from the Wolf Spider Lycosa shansia” (Toxins, 2023)

Key:
[1] = tested on: B/Malaysia/2506/2004 (B-Mal); type: cell-based, influenza virus
[2] = tested on: A/Hamburg/05/2009 (H1N1); type: cell-based, influenza virus
[3] = tested on: A/Hessen/1/2003 (H3N2); type: cell-based, influenza virus
[4] = tested on: panel of seven bacterial strains; assay: Antibacterial growth assay (OD600), statements on the whole panel; type: cell-based; conditions: growth after 48 h
[5] = tested on: Pseudomonas aeruginosa DSM 1117; assay: Antibacterial growth assay (OD600); conditions: for Bacterial growth relative to medium, P. aeruginosa (1117), replicate 1 / Bacterial growth relative to medium, P. aeruginosa (1117), replicate 2 / Bacterial growth relative to medium, P. aeruginosa (1117), replicate 3: OD600, medium = 100, MH II broth, 37 °C, peptide 200 µM mixed 50 µL + 50 µL with bacteria, Figure 7: 48 h; for Bacterial growth relative to medium, P. aeruginosa (1117), replicate 1: replicate column 1; for Bacterial growth relative to medium, P. aeruginosa (1117), replicate 2: replicate column 2; for Bacterial growth relative to medium, P. aeruginosa (1117), replicate 3: replicate column 3
Method: (§1) Cryo-conserved cultures of selected bacterial strains (Table 4) were transferred to Tryptic Soy Agar (TSA) plates (Carl Roth) with a sterile inoculation loop, sealed with Parafilm (BEMIS, Neenah, WI, USA), and incubated for 1–2 days at 37 °C depending on growth. Single colonies were picked and transferred into 2–3 mL of the Mueller–Hinton II (MH II) broth (BD, Heidelberg, Germany). The bacteria were cultivated overnight, subcultured on fresh medium and grown for 3–4 h before testing at 37 °C, with shaking at 180 rpm. We measured the optical density at 600 nm (OD600) of 1 mL of the bacterial suspensions in polystyrene cuvettes (SARSTED, Nümbrecht, Germany) using an Ultrospec 10 spectrophotometer (Biochrome, Cambridge, UK). We then diluted them with the MH II medium to the preferred OD600 (Table 2). The peptides were dissolved in DMSO to generate 10 mmol/L stocks and diluted with the MH II medium to 200 µM before the assay. We used 10 µg/mL (~40 µg/mL for S. epidermidis) gentamicin and colistin (Sigma-Aldrich, Taufkirchen, Germany), DMSO and the medium only as controls. The bacteria were transferred to 96-multiwell plates with a final volume of 100 µL per well (50 µL bacterial suspension, and 50 µL test peptide). The OD600 was measured at 0, 24 and 48 h using a BioTek Eon microplate reader followed by analysis with Gen5 v2.09.

[6] = tested on: Pseudomonas aeruginosa DSM 50071; assay: Antibacterial growth assay (OD600); conditions: OD600, medium = 100, MH II broth, 37 °C, peptide 200 µM mixed 50 µL + 50 µL with bacteria, Figure 7: 48 h; for Bacterial growth relative to medium, P. aeruginosa (50071), replicate 1: replicate column 1; for Bacterial growth relative to medium, P. aeruginosa (50071), replicate 2: replicate column 2; for Bacterial growth relative to medium, P. aeruginosa (50071), replicate 3: replicate column 3
[7] = tested on: Micrococcus luteus DSM 20030; assay: Antibacterial growth assay (OD600); conditions: for Antibacterial activity (in words): M. luteus DSM 20030, growth after 48 h; for Bacterial growth relative to medium, M. luteus, replicate 1 / Bacterial growth relative to medium, M. luteus, replicate 2 / Bacterial growth relative to medium, M. luteus, replicate 3: OD600, medium = 100, MH II broth, 37 °C, peptide 200 µM mixed 50 µL + 50 µL with bacteria, Figure 7: 48 h; for Bacterial growth relative to medium, M. luteus, replicate 1: replicate column 1; for Bacterial growth relative to medium, M. luteus, replicate 2: replicate column 2; for Bacterial growth relative to medium, M. luteus, replicate 3: replicate column 3
Method: as §1

[8] = tested on: Staphylococcus aureus DSM 2569; assay: Antibacterial growth assay (OD600); conditions: for Bacterial growth relative to medium, S. aureus, replicate 1 / Bacterial growth relative to medium, S. aureus, replicate 2 / Bacterial growth relative to medium, S. aureus, replicate 3: OD600, medium = 100, MH II broth, 37 °C, peptide 200 µM mixed 50 µL + 50 µL with bacteria, Figure 7: 48 h; for Bacterial growth relative to medium, S. aureus, replicate 1: replicate column 1; for Bacterial growth relative to medium, S. aureus, replicate 2: replicate column 2; for Bacterial growth relative to medium, S. aureus, replicate 3: replicate column 3; for Antibacterial activity (in words): S. aureus DSM 2569, growth after 48 h
Method: as §1

[9] = tested on: Escherichia coli BL21(DE3); assay: Antibacterial growth assay (OD600); conditions: for Bacterial growth relative to medium, E. coli, replicate 1 / Bacterial growth relative to medium, E. coli, replicate 2 / Bacterial growth relative to medium, E. coli, replicate 3: OD600, medium = 100, MH II broth, 37 °C, peptide 200 µM mixed 50 µL + 50 µL with bacteria, Figure 7: 48 h; for Bacterial growth relative to medium, E. coli, replicate 1: replicate column 1; for Bacterial growth relative to medium, E. coli, replicate 2: replicate column 2; for Bacterial growth relative to medium, E. coli, replicate 3: replicate column 3; for Antibacterial activity (in words): E. coli BL21(DE3), growth after 48 h
[10] = tested on: Listeria monocytogenes DSM 20600; assay: Antibacterial growth assay (OD600); conditions: for Bacterial growth relative to medium, L. monocytogenes, replicate 1 / Bacterial growth relative to medium, L. monocytogenes, replicate 2 / Bacterial growth relative to medium, L. monocytogenes, replicate 3: OD600, medium = 100, MH II broth, 37 °C, peptide 200 µM mixed 50 µL + 50 µL with bacteria, Figure 7: 48 h; for Bacterial growth relative to medium, L. monocytogenes, replicate 1: replicate column 1; for Bacterial growth relative to medium, L. monocytogenes, replicate 2: replicate column 2; for Bacterial growth relative to medium, L. monocytogenes, replicate 3: replicate column 3; for Antibacterial activity (in words): L. monocytogenes DSM 20600, growth after 48 h
[11] = tested on: Staphylococcus epidermidis DSM 28319; assay: Antibacterial growth assay (OD600); conditions: for Bacterial growth relative to medium, S. epidermidis, replicate 1 / Bacterial growth relative to medium, S. epidermidis, replicate 2 / Bacterial growth relative to medium, S. epidermidis, replicate 3: OD600, medium = 100, MH II broth, 37 °C, peptide 200 µM mixed 50 µL + 50 µL with bacteria, Figure 7: 48 h; for Bacterial growth relative to medium, S. epidermidis, replicate 1: replicate column 1; for Bacterial growth relative to medium, S. epidermidis, replicate 2: replicate column 2; for Bacterial growth relative to medium, S. epidermidis, replicate 3: replicate column 3; for Antibacterial activity (in words): S. epidermidis DSM 28319, growth after 48 h
[12] = […], replicate 4 (additional internal control)
[13] = […], replicate 5 (additional internal control)

Sequence | Viability of infected cells relative to aprotinin, Replicate 1 [1] | Viability of infected cells relative to aprotinin, Replicate 2 [1] | Viability of infected cells relative to aprotinin, Replicate 3 [1] | Viability of infected cells relative to aprotinin, Replicate 1 [2] | Viability of infected cells relative to aprotinin, Replicate 2 [2] | Viability of infected cells relative to aprotinin, Replicate 3 [2] | Viability of infected cells relative to aprotinin, Replicate 1 [3] | Viability of infected cells relative to aprotinin, Replicate 2 [3] | Viability of infected cells relative to aprotinin, Replicate 3 [3] | Antibacterial activity over the panel (in words) [4] | Bacterial growth relative to medium, P. aeruginosa (1117), replicate 1 [5] | Bacterial growth relative to medium, P. aeruginosa (1117), replicate 2 [5] | Bacterial growth relative to medium, P. aeruginosa (1117), replicate 3 [5] | Bacterial growth relative to medium, P. aeruginosa (50071), replicate 1 [6] | Bacterial growth relative to medium, P. aeruginosa (50071), replicate 2 [6] | Bacterial growth relative to medium, P. aeruginosa (50071), replicate 3 [6] | Bacterial growth relative to medium, M. luteus, replicate 1 [7] | Bacterial growth relative to medium, M. luteus, replicate 2 [7] | Bacterial growth relative to medium, M. luteus, replicate 3 [7] | Bacterial growth relative to medium, S. aureus, replicate 1 [8] | other results
SLLGLLDVVKNKVGQI [LS-AMP-A5] | 0.1132 | 0.06127 | 0.06301 | 0.0613 | 0.03494 | 0.03984 | 0.17 | 0.06482 | 0.08289 | inhibited the growth of most of the bacteria except two | 63.186 | 51.5489 | 62.0721 | 93.2773 | 109.79 | 85.8852 | 73.1884 | 97.1848 | 36.1549 | 55.1989 | Viability of infected cells relative to aprotinin, Replicate 4 [3, 12]: 0.1822; Viability of infected cells relative to aprotinin, Replicate 5 [3, 13]: 0.1791; Viability of infected cells relative to aprotinin, Replicate 6 ([3]; […], replicate 6 (additional internal control)): 0.1761; Antibacterial activity (in words) [7]: no activity; Bacterial growth relative to medium, S. aureus, replicate 2 [8]: 62.917; Bacterial growth relative to medium, S. aureus, replicate 3 [8]: 88.627; Bacterial growth relative to medium, E. coli, replicate 1 [9]: 99.4801; Bacterial growth relative to medium, E. coli, replicate 2 [9]: 69.6408; Bacterial growth relative to medium, E. coli, replicate 3 [9]: 26.4544; Bacterial growth relative to medium, L. monocytogenes, replicate 1 [10]: 122.608; Bacterial growth relative to medium, L. monocytogenes, replicate 2 [10]: 80.283; Bacterial growth relative to medium, L. monocytogenes, replicate 3 [10]: 61.98; Bacterial growth relative to medium, S. epidermidis, replicate 1 [11]: 62.884; Bacterial growth relative to medium, S. epidermidis, replicate 2 [11]: 53.6633; Bacterial growth relative to medium, S. epidermidis, replicate 3 [11]: 71.8202
SLLGLLDVVKNKVGQIG [LS-AMP-A4] | 0.05108 | 0.07356 | 0.0764 | 0.03111 | 0.02825 | 0.01475 | 0.1134 | 0.06953 | 0.04762 | inhibited the growth of most of the bacteria except two | 67.901 | 83.7452 | 58.9242 | 97.6103 | 110.944 | 86.4168 | 48.8727 | 93.5811 | 47.3458 | 64.8588 | Antibacterial activity (in words) [7]: able to decrease the growth; Bacterial growth relative to medium, S. aureus, replicate 2 [8]: 69.2609; Bacterial growth relative to medium, S. aureus, replicate 3 [8]: 80.5088; Antibacterial activity (in words) [8]: able to decrease the growth; Antibacterial activity (in words) [9]: able to decrease the growth; Bacterial growth relative to medium, E. coli, replicate 1 [9]: 63.5471; Bacterial growth relative to medium, E. coli, replicate 2 [9]: 64.6002; Bacterial growth relative to medium, E. coli, replicate 3 [9]: 38.7121; Antibacterial activity (in words) [10]: able to decrease the growth; Bacterial growth relative to medium, L. monocytogenes, replicate 1 [10]: 47.529; Bacterial growth relative to medium, L. monocytogenes, replicate 2 [10]: 64.3679; Bacterial growth relative to medium, L. monocytogenes, replicate 3 [10]: 81.7792; Bacterial growth relative to medium, S. epidermidis, replicate 1 [11]: 50.7409; Bacterial growth relative to medium, S. epidermidis, replicate 2 [11]: 49.8658; Bacterial growth relative to medium, S. epidermidis, replicate 3 [11]: 70.1306; Antibacterial activity (in words) [11]: able to decrease the growth
SLLGLLDVVKNKVGQIGLL [LS-AMP-A3] | 0.05676 | 0.05168 | 0.08362 | 0.0465 | 0.03476 | 0.04494 | 0.1081 | 0.01008 | 0.02318 | limited activity | 63.3724 | 74.5214 | 66.198 | 100.315 | 112.866 | 88.8092 | 106.28 | 132.545 | 67.7188 | 77.3106 | Antibacterial activity (in words) ([5]; P. aeruginosa DSM 1117, growth after 48 h): less effective; Bacterial growth relative to medium, S. aureus, replicate 2 [8]: 83.4859; Bacterial growth relative to medium, S. aureus, replicate 3 [8]: 97.1568; Bacterial growth relative to medium, E. coli, replicate 1 [9]: 114.847; Bacterial growth relative to medium, E. coli, replicate 2 [9]: 118.887; Bacterial growth relative to medium, E. coli, replicate 3 [9]: 89.3889; Antibacterial activity (in words) [10]: less effective; Bacterial growth relative to medium, L. monocytogenes, replicate 1 [10]: 59.9369; Bacterial growth relative to medium, L. monocytogenes, replicate 2 [10]: 117.418; Bacterial growth relative to medium, L. monocytogenes, replicate 3 [10]: 68.2929; Bacterial growth relative to medium, S. epidermidis, replicate 1 [11]: 125.081; Bacterial growth relative to medium, S. epidermidis, replicate 2 [11]: 166.552; Bacterial growth relative to medium, S. epidermidis, replicate 3 [11]: 95.4096
SLLGLLDVVKNTVGQ [LS-AMP-A11] | 0.04707 | 0.04802 | 0.0552 | 0.05004 | 0.04235 | 0.04417 | 0.1919 | 0.09823 | 0.08306 | inhibited the growth of most of the bacteria except two | 82.0725 | 95.9276 | 84.5049 | 97.4528 | 114.818 | 88.0117 | 56.0386 | 92.3422 | 31.1812 | 50.8023 | Viability of infected cells relative to aprotinin, Replicate 4 [2, 12]: 0.03789; Viability of infected cells relative to aprotinin, Replicate 5 [2, 13]: 0.01667; Antibacterial activity (in words) [7]: able to decrease the growth; Bacterial growth relative to medium, S. aureus, replicate 2 [8]: 58.8947; Bacterial growth relative to medium, S. aureus, replicate 3 [8]: 79.7231; Antibacterial activity (in words) [8]: able to decrease the growth; Antibacterial activity (in words) [9]: able to decrease the growth; Bacterial growth relative to medium, E. coli, replicate 1 [9]: 64.587; Bacterial growth relative to medium, E. coli, replicate 2 [9]: 63.905; Bacterial growth relative to medium, E. coli, replicate 3 [9]: 36.8825; Antibacterial activity (in words) [10]: able to decrease the growth; Bacterial growth relative to medium, L. monocytogenes, replicate 1 [10]: 57.2028; Bacterial growth relative to medium, L. monocytogenes, replicate 2 [10]: 67.6393; Bacterial growth relative to medium, L. monocytogenes, replicate 3 [10]: 84.2183; Bacterial growth relative to medium, S. epidermidis, replicate 1 [11]: 49.2953; Bacterial growth relative to medium, S. epidermidis, replicate 2 [11]: 44.2655; Bacterial growth relative to medium, S. epidermidis, replicate 3 [11]: 33.4715; Antibacterial activity (in words) [11]: able to decrease the growth
